Experiments:
[1] = test system: ATF4 in H929 multiple myeloma cells; assay: H929 ATF4 ELISA assay (stimulation of cellular ATF4); format: cell-based; settings: 4 h, no thapsigargin
Protocol: H929 multiple myeloma cells (catalog #CRL-9068) were obtained from the American Type Culture Collection (ATTC, Manassas, VA). Briefly, cells were grown in RPMI-1640 medium supplemented with 20% heat-inactivated fetal bovine serum (catalog #A3840002, ThermoFisher Scientific, Waltham, MA), 1% Penicillin/Streptomycin/L-Glutamine (catalog #10378016, ThermoFisher Scientific, Waltham, MA), and 0.05 mM 2-mercaptoethanol (catalog #21985-023, ThermoFisher Scientific, Waltham, MA) at 37° C., 5% CO2, and 95% humidity. Cells were expanded until reaching one million five hundred thousand cells per mL at which time they were subcultured or harvested for assay use. One million five hundred thousand cells per well in 1 mL complete growth medium were dispensed into 12-well plates and incubated overnight. A serial dilution of test compound was added, and cells were incubated at 37° C., 5% CO2, and 95% for four hours. Cells were lysed then ATF4 levels were measured using an ELISA assay (Proteintech, Rosemont, IL). Absorbance is measured at 450 nm and 544 nM using a Synergy2 or equivalent reader (Biotek, Winooski VT). Data were analyzed using PRISM software (Graphpad, San Diego, CA) to calculate fold stimulation of cellular ATF4 relative to vehicle treated control.

GCN2 kinase = GCN2 kinase (Homo sapiens (Human), UniProt Q9P2K8); assay: Biochemical assay for GCN2 (TR-FRET kinase activity assay); settings: 1 mM ATP, 3-hour incubation
In short: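 TR-FRET assay with 2 nM GCN2, 130 nM GFP-eIF2α substrate, 0.2 mg/mL E. coli tRNA and 1 mM ATP; compounds (0.5% DMSO) reacted 3 h. Stopped with 20 mM EDTA plus 2 nM Tb-anti-peIF2α (pSer52), 60 min RT; 520/490 ratio converted to % inhibition, IC50 from four-parameter fit.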

PERK kinase = PERK kinase (Homo sapiens (Human), UniProt Q9NZJ5); assay: Biochemical assay for PERK (coupled pyruvate kinase/lactate dehydrogenase assay); settings: 1 mM ATP, rate from 2-3 h time frame
In short: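 Coupled pyruvate kinase/lactate dehydrogenase readout of ATP hydrolysis via NADH oxidation (A340), 10 nM PERK, 0.25 mg/mL myelin basic protein, 1 mM ATP, pH 7.5 Tris/MgCl2 buffer, 1% DMSO. Absorbance followed 6 h at 30° C; rate from the 2-3 h window, normalised to no-compound and known-inhibitor controls, IC50 fitted.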

[2] = test system: ATF4 in CCRF-CEM leukemia cells (PERK); assay: CCRF-CEM TG ATF4 ELISA, phenotypic assay for cellular inhibition of PERK preactivated by thapsigargin; format: cell-based; settings: Homo sapiens; Thapsigargin (1 μM) stimulated CCRF-CEM cells
CCRF-CEM leukemia cells = assay: CCRF-CEM ASNase cell proliferation assay, phenotypic assay for cellular inhibition of GCN2; format: cell-based; settings: Homo sapiens; ASNase treated CCRF-CEM cells, 1 mU/mL ASNase, 72 h
In short: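 Cells were seeded at ten thousand per well in RPMI-1640 with 10% heat-inactivated FBS and treated in triplicate with serially diluted compound plus 1 mU/mL ASNase for 72 h at 37 °C, 5% CO2. Resazurin was then added for 6 h, with fluorescence read at ex 540/em 600 nm to derive IC50 values.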

[3] = test system: ATF4 in HCT116 colorectal cancer cells; assay: HCT116 amino acid starved (-AA) ATF4 assay (Western blot); format: cell-based; settings: Homo sapiens, HCT-116, 4 h
Protocol: (§1) HCT116 colorectal cancer cells (catalog #CCL-247) were obtained from the American Type Culture Collect (ATTC, Manassas, VA). Briefly, cells were grown in RPMI 1640 supplemented with 10% heat inactivated fetal bovine serum (Invitrogen, Carlsbad, CA) and 1% Penicillin/Streptomycin/L-Glutamine at 37° C., 5% CO2, and 95% humidity. Cells were expanded until reaching 70-95% confluency at which point they were subcultured or harvested for assay use. Cells were seeded in 12-well culture plate at five hundred thousand cells per well in 1 mL complete growth medium and incubated overnight at 37° C., 5% CO2, and 95% humidity. The next day each well was replaced with 1 mL Earle's Balanced Salt Solution (EBSS, Invitrogen, Carlsbad, CA) supplemented with 10% Dialyzed Fetal Bovine Serum, 5.5 mM Glucose, 1% Penicillin/Streptomycin and 1% Vitamin solution (thermo #11120052). A serial dilution of test compound was dispensed into well. Plates were incubated for 4 h at 37° C., 5% CO2, and 95% humidity. At the end of the incubation, cells were washed with PBS supplemented with 1× Halt protease inhibitor, 1× Halt phosphatase inhibitor, 1× Sigma phosphatase inhibitor cocktail 2 and 1×EDTA and then lysed with M-PER Mammalian Protein Extraction Reagent supplemented with 3× of the inhibitor mix as described above. Cell lysates were sonicated with water bath sonicator (Qsonica, Newtown, CT) and supernatants were boiled with SDS buffer and reducing agent. Western blot was performed on each lysate to quantify phospho-GCN2 (Thr899), total GCN2, ATF4 and beta-Actin. Membranes were imaged with LI-COR Odyssey CLx Imaging System (LI-COR, Lincoln, NE). Data were analyzed using GraphPad Prism software (GraphPad, San Diego, CA) to calculate IC50 values.

[4] = test system: phospho-GCN2 (Thr899) in HCT116 colorectal cancer cells; assay: HCT116 amino acid starved (-AA) phospho-GCN2 assay (Western blot); format: cell-based; settings: Homo sapiens, HCT-116, 4 h, read-out: HCT116-AA pGCN2 Western Blot
Protocol: as §1

PERK kinase, sequence (Q9NZJ5 other isoform, or with tags, fused parts or gaps): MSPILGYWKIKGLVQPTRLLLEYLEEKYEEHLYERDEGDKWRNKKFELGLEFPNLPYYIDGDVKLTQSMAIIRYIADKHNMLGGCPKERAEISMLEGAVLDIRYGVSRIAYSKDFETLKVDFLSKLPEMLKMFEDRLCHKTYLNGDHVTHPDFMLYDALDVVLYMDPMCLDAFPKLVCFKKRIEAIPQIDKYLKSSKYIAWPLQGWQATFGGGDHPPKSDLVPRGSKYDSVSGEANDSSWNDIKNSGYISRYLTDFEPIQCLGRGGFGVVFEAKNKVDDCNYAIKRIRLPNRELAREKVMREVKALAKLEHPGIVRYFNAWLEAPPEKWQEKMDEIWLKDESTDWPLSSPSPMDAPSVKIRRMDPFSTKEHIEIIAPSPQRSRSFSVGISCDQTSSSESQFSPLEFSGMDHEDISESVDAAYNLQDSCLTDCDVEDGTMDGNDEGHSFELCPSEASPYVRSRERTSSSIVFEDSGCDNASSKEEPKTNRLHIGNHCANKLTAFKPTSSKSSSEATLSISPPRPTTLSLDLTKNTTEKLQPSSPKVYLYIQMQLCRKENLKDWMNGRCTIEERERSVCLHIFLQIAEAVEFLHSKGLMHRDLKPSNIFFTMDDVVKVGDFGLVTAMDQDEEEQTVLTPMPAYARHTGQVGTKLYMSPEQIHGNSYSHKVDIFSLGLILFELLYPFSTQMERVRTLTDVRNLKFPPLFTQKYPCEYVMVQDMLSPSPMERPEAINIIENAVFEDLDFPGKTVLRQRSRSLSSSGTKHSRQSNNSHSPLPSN
GCN2 kinase, sequence (Q9P2K8 whole entry): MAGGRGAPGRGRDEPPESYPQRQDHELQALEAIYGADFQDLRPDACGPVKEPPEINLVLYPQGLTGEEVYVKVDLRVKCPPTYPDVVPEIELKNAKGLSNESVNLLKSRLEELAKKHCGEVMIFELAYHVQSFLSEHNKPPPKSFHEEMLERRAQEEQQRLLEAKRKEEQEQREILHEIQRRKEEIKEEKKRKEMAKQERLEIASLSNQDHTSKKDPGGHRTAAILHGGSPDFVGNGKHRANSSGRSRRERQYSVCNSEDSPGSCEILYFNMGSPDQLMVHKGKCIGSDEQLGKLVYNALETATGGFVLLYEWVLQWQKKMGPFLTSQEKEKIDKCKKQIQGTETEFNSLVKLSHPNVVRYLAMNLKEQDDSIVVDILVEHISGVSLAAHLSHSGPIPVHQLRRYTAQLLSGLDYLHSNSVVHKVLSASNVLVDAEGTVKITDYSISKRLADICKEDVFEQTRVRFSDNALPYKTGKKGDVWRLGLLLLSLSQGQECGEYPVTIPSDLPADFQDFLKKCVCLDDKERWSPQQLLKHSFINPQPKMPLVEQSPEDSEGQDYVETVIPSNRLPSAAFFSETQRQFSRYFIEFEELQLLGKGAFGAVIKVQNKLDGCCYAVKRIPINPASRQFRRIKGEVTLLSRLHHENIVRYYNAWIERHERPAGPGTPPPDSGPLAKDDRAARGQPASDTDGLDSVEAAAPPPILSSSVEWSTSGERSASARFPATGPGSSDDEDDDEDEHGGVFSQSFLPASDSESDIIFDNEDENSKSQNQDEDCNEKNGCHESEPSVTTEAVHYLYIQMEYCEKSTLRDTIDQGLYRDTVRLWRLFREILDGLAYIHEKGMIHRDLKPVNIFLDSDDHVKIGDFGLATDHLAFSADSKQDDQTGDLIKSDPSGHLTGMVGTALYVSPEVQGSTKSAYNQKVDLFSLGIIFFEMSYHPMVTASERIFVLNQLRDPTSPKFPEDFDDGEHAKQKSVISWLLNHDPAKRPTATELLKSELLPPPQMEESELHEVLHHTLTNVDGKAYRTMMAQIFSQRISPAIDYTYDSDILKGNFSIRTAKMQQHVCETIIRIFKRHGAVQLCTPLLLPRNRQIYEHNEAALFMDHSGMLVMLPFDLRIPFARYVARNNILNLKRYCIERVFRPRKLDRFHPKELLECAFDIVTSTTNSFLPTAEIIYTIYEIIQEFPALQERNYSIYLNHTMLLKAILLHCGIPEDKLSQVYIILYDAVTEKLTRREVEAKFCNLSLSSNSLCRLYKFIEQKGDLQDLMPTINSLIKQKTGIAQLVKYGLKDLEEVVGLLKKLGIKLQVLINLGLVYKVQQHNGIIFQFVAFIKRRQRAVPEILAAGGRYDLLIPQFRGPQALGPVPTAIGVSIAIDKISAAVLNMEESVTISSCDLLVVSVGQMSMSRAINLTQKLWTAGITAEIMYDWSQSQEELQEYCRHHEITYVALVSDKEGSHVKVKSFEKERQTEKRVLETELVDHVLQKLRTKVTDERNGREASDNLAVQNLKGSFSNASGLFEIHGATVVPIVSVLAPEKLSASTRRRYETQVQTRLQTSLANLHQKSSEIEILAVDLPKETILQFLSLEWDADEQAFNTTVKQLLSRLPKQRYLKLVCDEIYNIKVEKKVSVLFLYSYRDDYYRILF

| SMILES | H929 NS ATF4 ELISA (fold stimulation of ATF4 relative to vehicle) [1] | IC50 (GCN2 kinase) | IC50 (PERK kinase) | IC50 [2] | IC50 (CCRF-CEM leukemia cells) | IC50 [3] | IC50 [4] |
| --- | --- | --- | --- | --- | --- | --- | --- |
| CNc1ncc2cc(-c3cccc(NS(=O)(=O)c4cc(Cl)cnc4OC)c3C(F)(F)F)ccc2n1 [Example 79] | +++ (“+++” refers to an ATF4 stim greater than 10 fold and less than or equal to 20 fold) | 100 to 500 nM | 100 to 500 nM |  |  |  |  |
| COc1ncc(Cl)cc1S(=O)(=O)Nc1cc(F)cc(-c2cnc3nc(N)ncc3c2)c1 [Example 86] | +++ (“+++” refers to an ATF4 stim greater than 10 fold and less than or equal to 20 fold) | 1000 to 10000 nM | 1000 to 10000 nM |  |  |  |  |
| COc1ncc(Cl)cc1S(=O)(=O)Nc1cc(F)cc(-c2cc3cnc(N)nc3nc2N)c1 [Example 92] |  | ≤ 100 nM | ≤ 100 nM | 1000 to 10000 nM | ≤ 100 nM | ≤ 100 nM | ≤ 100 nM |
| COc1nc2nc(N)ncc2cc1-c1cc(F)cc(NS(=O)(=O)c2cc(Cl)cnc2OC)c1 [Example 93] |  | ≤ 100 nM | 100 to 500 nM | 1000 to 10000 nM | 100 to 500 nM | 100 to 500 nM | ≤ 100 nM |
| CNc1ncc2cc(-c3cccc(NS(=O)(=O)c4cc(Cl)cnc4OC)c3C#N)c(C)nc2n1 [Example 95] |  | ≤ 100 nM | 100 to 500 nM | 1000 to 10000 nM | 100 to 500 nM | 100 to 500 nM | ≤ 100 nM |
| CNc1nc2nc(N)ncc2cc1-c1cc(F)cc(NS(=O)(=O)c2cc(Cl)cnc2OC)c1 [Example 96] |  | ≤ 100 nM | 100 to 500 nM | 1000 to 10000 nM | 100 to 500 nM | 100 to 500 nM | ≤ 100 nM |
| CNc1ncc2cc(-c3cccc(NS(=O)(=O)c4cc(Cl)cnc4OC)c3F)c(NCCO)nc2n1 [Example 97] |  | ≤ 100 nM | 100 to 500 nM | 1000 to 10000 nM | ≤ 100 nM | 100 to 500 nM | ≤ 100 nM |
| CNc1ncc2cc(-c3cccc(NS(=O)(=O)c4cc(Cl)cnc4OC)c3F)c(NCCOC)nc2n1 [Example 100] |  | ≤ 100 nM | 100 to 500 nM | 1000 to 10000 nM | ≤ 100 nM | ≤ 100 nM | ≤ 100 nM |
| CNc1ncc2cc(-c3cccc(NS(=O)(=O)c4cc(Cl)cc(C(=O)OC)c4Cl)c3F)c(NC)nc2n1 [Example 102] |  | ≤ 100 nM | 100 to 500 nM | 1000 to 10000 nM | ≤ 100 nM | ≤ 100 nM | ≤ 100 nM |
| CNc1nc2nc(NC3CC3)ncc2cc1-c1cccc(NS(=O)(=O)c2cc(Cl)cnc2OC)c1F [Example 111] |  | ≤ 100 nM | 100 to 500 nM | 1000 to 10000 nM | 100 to 500 nM | ≤ 100 nM | 100 to 500 nM |
| CNc1cc2nc(NC)c(-c3cccc(NS(=O)(=O)c4cc(Cl)cnc4OC)c3Cl)cc2cn1 [Example 113] |  | 100 to 500 nM | 100 to 500 nM | 500 to 1000 nM | ≤ 100 nM | 100 to 500 nM | ≤ 100 nM |
| CNc1cc2nc(NC)c(-c3cccc(NS(=O)(=O)c4cc(Cl)cnc4OC)c3F)cc2cn1 [Example 114] |  | ≤ 100 nM | ≤ 100 nM | 1000 to 10000 nM | ≤ 100 nM | 100 to 500 nM | ≤ 100 nM |
| CCNc1ncc2cc(-c3cccc(NS(=O)(=O)c4cc(Cl)cnc4OC)c3F)c(NC)nc2n1 [Example 115] |  | ≤ 100 nM | ≤ 100 nM | 1000 to 10000 nM | ≤ 100 nM | ≤ 100 nM | ≤ 100 nM |
| CNc1nc2nc(NC(C)C)ncc2cc1-c1cccc(NS(=O)(=O)c2cc(Cl)cnc2OC)c1F [Example 117] |  | ≤ 100 nM | 100 to 500 nM | 1000 to 10000 nM | 100 to 500 nM | 100 to 500 nM | 100 to 500 nM |
| COc1ncc(Cl)cc1S(=O)(=O)Nc1cccc(-c2cc3cnc(N)cc3nc2C)c1Cl [Example 121] |  | ≤ 100 nM | ≤ 100 nM | 100 to 500 nM | ≤ 100 nM | ≤ 100 nM | ≤ 100 nM |
| CNc1cc2nc(C)c(-c3cccc(NS(=O)(=O)c4cc(Cl)cnc4OC)c3Cl)cc2cn1 [Example 127] |  | ≤ 100 nM | ≤ 100 nM | 500 to 1000 nM | ≤ 100 nM | ≤ 100 nM | ≤ 100 nM |
| CNc1cc2nc(OC)c(-c3cccc(NS(=O)(=O)c4cc(Cl)cnc4OC)c3F)cc2cn1 [Example 129] |  | ≤ 100 nM | ≤ 100 nM | 1000 to 10000 nM | ≤ 100 nM | ≤ 100 nM | ≤ 100 nM |
| CNc1ncc2cc(-c3cccc(NS(=O)(=O)c4cc(Cl)c(OC)cc4Cl)c3F)c(NC)nc2n1 [Example 132] |  | ≤ 100 nM | ≤ 100 nM | 500 to 1000 nM | ≤ 100 nM | ≤ 100 nM | ≤ 100 nM |
| COc1nc2nc(N)ncc2cc1-c1ccnc(NS(=O)(=O)c2cc(Cl)cnc2OC)c1F [Example 135] |  | ≤ 100 nM | 100 to 500 nM | 1000 to 10000 nM | 500 to 1000 nM | 1000 to 10000 nM | 100 to 500 nM |
| CNc1ncc2cc(-c3ccnc(NS(=O)(=O)c4cc(Cl)cnc4OC)c3F)c(OC)nc2n1 [Example 136] |  | ≤ 100 nM | 100 to 500 nM | 1000 to 10000 nM | 100 to 500 nM | 100 to 500 nM | ≤ 100 nM |
| CNc1ncc2cc(-c3cccc(NS(=O)(=O)c4cc(Cl)cnc4NC4CC4)c3F)c(NC)nc2n1 [Example 137] |  | ≤ 100 nM | 100 to 500 nM | 1000 to 10000 nM | ≤ 100 nM | ≤ 100 nM | ≤ 100 nM |
| CNc1cc2nc(C)c(-c3cc(NS(=O)(=O)c4cc(Cl)cnc4OC)cc(F)c3F)cc2cn1 [Example 143] |  | ≤ 100 nM | ≤ 100 nM | 1000 to 10000 nM | ≤ 100 nM | ≤ 100 nM | ≤ 100 nM |
| CNc1ncc2cc(-c3cccc(NS(=O)(=O)c4cc(Cl)ccc4OC)c3F)c(NC)nc2n1 [Example 148] |  | ≤ 100 nM | ≤ 100 nM | 1000 to 10000 nM | ≤ 100 nM | ≤ 100 nM | ≤ 100 nM |
| CNc1nc2nc(NC(C)=O)ncc2cc1-c1cccc(NS(=O)(=O)c2cc(Cl)cnc2OC)c1F [Example 158] |  | ≤ 100 nM | 100 to 500 nM | 1000 to 10000 nM | ≤ 100 nM | ≤ 100 nM | ≤ 100 nM |
| Cc1nc2cc(N)ncc2cc1-c1cccc(NS(=O)(=O)c2cc(Cl)cc(CO)c2Cl)c1F [Example 174] | +++ (“+++” refers to an ATF4 stim greater than 10 fold and less than or equal to 20 fold) |  |  | ≤ 100 nM | ≤ 100 nM |  |  |

Source: patent US11912668B2, “GCN2 and perk kinase inhibitors and methods of use thereof” (Deciphera Pharmaceuticals, LLC, priority 2020, dated 2024)
